Experimental data: the NIST ThermoML archive (doi:10.1021/acs.jced.7b01031)
± gives the expanded uncertainty stated by the source.

Conditions: Pulse-echo method

Cl [hydrogen chloride]
Liquid
Conditions	speed of sound [m/s]
218.3 K	940 ± 3
224.3 K	910 ± 3
229.2 K	887 ± 3
233.1 K	865 ± 3
243 K	814 ± 3
248 K	790 ± 4
252.9 K	762 ± 4
258 K	734 ± 4
263 K	705 ± 4
268 K	676 ± 5
273 K	646 ± 5

Fluid (supercritical or subcritical phases)
Conditions	speed of sound [m/s]
267 K, 7500 kPa	735 ± 6
269.9 K, 9700 kPa	740 ± 6
274.8 K, 13900 kPa	751 ± 5
279.8 K, 5500 kPa	634 ± 7
279.8 K, 18000 kPa	761 ± 5
284.8 K, 8500 kPa	640 ± 7
284.8 K, 22200 kPa	773 ± 4
289.7 K, 11800 kPa	652 ± 7
289.8 K, 26500 kPa	783 ± 4
292.9 K, 6900 kPa	564 ± 9
294.8 K, 15600 kPa	666 ± 6
294.8 K, 30800 kPa	794 ± 4
295 K, 8000 kPa	567 ± 9
299.8 K, 19200 kPa	678 ± 6
300 K, 11100 kPa	582 ± 9
300 K, 35100 kPa	805 ± 4
303.1 K, 37700 kPa	810 ± 4
305 K, 14200 kPa	595 ± 8
305 K, 22900 kPa	690 ± 6
305 K, 39300 kPa	814 ± 4
310 K, 17300 kPa	608 ± 7
310 K, 26300 kPa	700 ± 5
315 K, 20400 kPa	621 ± 7
315 K, 30000 kPa	712 ± 5
320 K, 10800 kPa	425 ± 15
320 K, 23500 kPa	632 ± 6
320 K, 33600 kPa	722 ± 4
325 K, 12900 kPa	441 ± 9
325 K, 26600 kPa	643 ± 6
325 K, 37200 kPa	732 ± 4
328 K, 39300 kPa	738 ± 4
330 K, 15100 kPa	456 ± 9
330 K, 29800 kPa	654 ± 5
335 K, 17200 kPa	469 ± 9
335 K, 32900 kPa	665 ± 5
340 K, 19300 kPa	482 ± 10
340 K, 36000 kPa	675 ± 5
345 K, 21500 kPa	494 ± 8
345 K, 39200 kPa	685 ± 5
350 K, 23700 kPa	506 ± 7
355 K, 25900 kPa	517 ± 6
359.9 K, 21500 kPa	433 ± 9
360 K, 28000 kPa	527 ± 8
365 K, 30200 kPa	537 ± 7
369.9 K, 24900 kPa	454 ± 8
370 K, 32400 kPa	547 ± 5
374.9 K, 34600 kPa	556 ± 5
379.9 K, 28400 kPa	473 ± 6
379.9 K, 36800 kPa	565 ± 6
385.9 K, 39400 kPa	575 ± 7
389.9 K, 31800 kPa	491 ± 6
394.9 K, 22700 kPa	371 ± 6
399.9 K, 12100 kPa	324 ± 2
399.9 K, 35300 kPa	508 ± 6
404.9 K, 24800 kPa	386 ± 5
409.9 K, 21600 kPa	356 ± 5
411.9 K, 39500 kPa	526 ± 6
414.9 K, 26900 kPa	400 ± 6
419.9 K, 13200 kPa	339 ± 2
419.9 K, 23100 kPa	368 ± 3
424.9 K, 29000 kPa	414 ± 6
434.9 K, 31000 kPa	426 ± 5
439.9 K, 14300 kPa	355 ± 2
439.9 K, 26100 kPa	390 ± 3
444.9 K, 33100 kPa	438 ± 5
459.9 K, 29100 kPa	411 ± 3
460 K, 15500 kPa	369 ± 2
460 K, 36100 kPa	456 ± 4
474.9 K, 39200 kPa	472 ± 4
479.9 K, 16500 kPa	383 ± 2
479.9 K, 32000 kPa	430 ± 3
